Consider seven molecules from ChEMBL document CHEMBL1201862, “PubChem BioAssay data set” (2004).

Among the test systems are ACHN; KM12; HOP-92; HCT-116; MCF7; SF-539; RXF 393; A549; TK-10; HCT-15; Hs-578T; SK-MEL-28; NCI/ADR-RES; SN12C; SF-295; NCI-H522; IGROV-1; SNB-19; SW-620; CAKI-1.
Holding throughout (experiment): NCI tumour cell line growth inhibition, 48 h

The structures appear in SMILES notation.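 These data come from cells grown in 96-well plates and exposed to compound for 48 hours at five concentrations. GI50 marks 50% less growth.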 Activity calls are given as the source filed them. Rule as the data show it: active = GI50 up to about 1.1 µM and inactive = higher. Bounds are passed on as bounds.

On to `NNC(=O)CC(=O)Nc1ccccc1Cl`, for which the GI50 in the assay on ACHN, in the assay on KM12, in the assay with HOP-92, with HCT-116, in the assay with MCF7 and in the assay with SF-539 was > 100 µM (inactive) each time. In addition, the GI50 with RXF 393 was > 100 µM (inactive); with A549 it was > 100 µM (inactive); in the assay on TK-10 it was > 100 µM (inactive); in the assay with HCT-15 it was > 100 µM; in the assay on Hs-578T, > 100 µM (inactive); in the assay with SK-MEL-28 it was > 100 µM (inactive). Besides, the GI50 in the assay with NCI/ADR-RES, in the assay on SN12C, with SF-295, in the assay on NCI-H522, with IGROV-1 and in the assay with SNB-19 was > 100 µM (inactive) in each case. The GI50 with SW-620 and in the assay with CAKI-1 was > 100 µM (inactive) in each case.

Consider `C=CC[C@@]1(OC(C)=O)C(=O)C(=O)OC1C1COC(C)(C)O1` (stereo not given in full), for which the GI50 in the assay on ACHN is 16.6 µM (inactive); in the assay with KM12, 15.7 µM (inactive); in the assay with HOP-92, 14.6 µM (inactive); in the assay on HCT-116 it was 13.1 µM (inactive); in the assay with MCF7, 17.3 µM (inactive); in the assay on SF-539, 25.1 µM (inactive). In addition, the GI50 with RXF 393 is 16.3 µM (inactive); in the assay with A549, 24.1 µM (inactive); in the assay on TK-10, 16.3 µM (inactive); in the assay with HCT-15 it was 15 µM; in the assay with Hs-578T, 31 µM (inactive); in the assay on SK-MEL-28, 18.8 µM (inactive). Further, the GI50 is 25.3 µM (inactive) in the assay with NCI/ADR-RES; 17.6 µM (inactive) in the assay on SN12C; 32.4 µM (inactive) in the assay on SF-295; 6.12 µM (inactive) in the assay with NCI-H522; 18.6 µM (inactive) with IGROV-1; 70.5 µM (inactive) with SNB-19. The GI50 with SW-620 was 11.9 µM (inactive); in the assay on CAKI-1 it was 2.08 µM (inactive).

In the case of `CC[N+](C)(CC)CCN1C(=O)c2ccccc2S1(=O)=O`, the GI50 with ACHN, in the assay on KM12, in the assay on HOP-92, in the assay with HCT-116, in the assay on MCF7 and in the assay with SF-539 was > 100 µM (inactive) each time. Besides, the GI50 with RXF 393 is > 100 µM (inactive); in the assay on A549, > 100 µM (inactive); in the assay with TK-10 it was > 100 µM (inactive); in the assay with HCT-15 it was > 100 µM; in the assay on Hs-578T, > 100 µM (inactive); in the assay on SK-MEL-28, > 100 µM (inactive). In addition, the GI50 with NCI/ADR-RES, with SN12C, in the assay on SF-295, in the assay on NCI-H522, in the assay with IGROV-1 and in the assay on SNB-19 was > 100 µM (inactive) throughout. Further, the GI50 in the assay with SW-620 and in the assay on CAKI-1 was > 100 µM (inactive) throughout.

As to `Cn1cnc([N+](=O)[O-])c1[Se]c1nc(N)nc2c1ncn2C1OC(CO)C(O)C1O` (stereo not given), the GI50 in the assay on ACHN, with KM12, with HOP-92, in the assay on HCT-116, in the assay on MCF7 and with SF-539 was > 100 µM (inactive) each time. The GI50 is > 100 µM (inactive) in the assay with RXF 393; > 100 µM (inactive) in the assay with A549; > 100 µM (inactive) with TK-10; > 100 µM with HCT-15; > 100 µM (inactive) in the assay with Hs-578T; > 100 µM (inactive) in the assay with SK-MEL-28. Moreover, the GI50 in the assay on NCI/ADR-RES, in the assay on SN12C, with SF-295, in the assay on NCI-H522, in the assay with IGROV-1 and in the assay with SNB-19 was > 100 µM (inactive) each time. Besides, the GI50 in the assay on SW-620 and in the assay on CAKI-1 was > 100 µM (inactive) in each case.

`COC(=O)c1ccccc1C1CN=NC12Cc1cc(C)cc(C)c1C2=O` (stereo not given): the GI50 is 88.7 µM (inactive) in the assay on ACHN; 29.9 µM (inactive) in the assay on KM12; 26.9 µM (inactive) in the assay with HOP-92; 44.1 µM (inactive) in the assay with HCT-116; 27.5 µM (inactive) in the assay with MCF7; > 100 µM (inactive) in the assay on SF-539. Further, the GI50 in the assay on RXF 393 was > 100 µM (inactive); with A549, 45.5 µM (inactive); in the assay with TK-10, 60.4 µM (inactive); with HCT-15 it was 17.3 µM; in the assay with Hs-578T, 86.3 µM (inactive); in the assay with SK-MEL-28, > 100 µM (inactive). Moreover, the GI50 is 38.4 µM (inactive) in the assay with NCI/ADR-RES; 83.2 µM (inactive) in the assay with SN12C; 48.6 µM (inactive) in the assay on SF-295; 13.3 µM (inactive) in the assay with NCI-H522; > 100 µM (inactive) in the assay with IGROV-1; > 100 µM (inactive) with SNB-19. Moreover, the GI50 was 62.7 µM (inactive) in the assay with SW-620 and 36.8 µM (inactive) in the assay with CAKI-1.

As for `COC(=O)NCCc1n[nH]c2c1C(=O)C=C(OC)C2=O`, the GI50 is 19.1 µM (inactive) in the assay on ACHN; 20.9 µM (inactive) in the assay with KM12; 21.5 µM (inactive) in the assay with HOP-92; 18.6 µM (inactive) in the assay on HCT-116; 27.2 µM (inactive) in the assay with MCF7; 19.4 µM (inactive) with SF-539. Besides, the GI50 with RXF 393 is 17.6 µM (inactive); in the assay on A549 it was 46.7 µM (inactive); in the assay on TK-10, 43.9 µM (inactive); in the assay on HCT-15 it was 28.4 µM; with Hs-578T, 34.3 µM (inactive); in the assay on SK-MEL-28 it was 20.1 µM (inactive). Also, the GI50 in the assay on NCI/ADR-RES was > 100 µM (inactive); in the assay with SN12C, 20.3 µM (inactive); in the assay with SF-295 it was 18.2 µM (inactive); in the assay with NCI-H522 it was 23.9 µM (inactive); in the assay on IGROV-1, 19.9 µM (inactive); in the assay on SNB-19, 21.3 µM (inactive). Also, the GI50 is 22.6 µM (inactive) in the assay with SW-620 and 24.5 µM (inactive) with CAKI-1.

Regarding `COC1=CC(=O)C[C@@H](C)[C@]12Oc1c(Cl)c(OC)cc(OC)c1C2=O` [GRISEOFULVIN], the GI50 was 67.3 µM (inactive) with ACHN; 6.04 µM (inactive) in the assay with KM12; > 34.3 µM (inactive) in the assay with HOP-92; 11.8 µM (inactive) with HCT-116; 9.62 µM (inactive) in the assay with MCF7; 14.6 µM (inactive) with SF-539. Further, the GI50 in the assay on RXF 393 was 10.5 µM (inactive); in the assay with A549 it was 63.5 µM (inactive); in the assay with TK-10, > 85.1 µM (inactive); in the assay on HCT-15, 22.8 µM; in the assay with Hs-578T it was 11.9 µM (inactive); in the assay with SK-MEL-28 it was 99.3 µM (inactive). For the same molecule, the GI50 was 12.3 µM (inactive) in the assay with NCI/ADR-RES; 40.5 µM (inactive) in the assay with SN12C; 21.8 µM (inactive) with SF-295; 8.11 µM (inactive) in the assay on NCI-H522; 17.4 µM (inactive) with IGROV-1; 35.2 µM (inactive) in the assay with SNB-19. Besides, the GI50 was 7.62 µM (inactive) in the assay on SW-620 and 9.53 µM (inactive) in the assay on CAKI-1.
